Experimental data reported in patent US12122761B2, “2-azaspiro[3.4]octane derivatives as M4 agonists” (NOVARTIS AG, priority 2019, dated 2024).

Legend:
Assay type in all cases: cell-based
[1] = target: T1, human cloned CHRM5 receptor (M5_CHO) (Homo sapiens, UniProt P08912); experiment: CHRM5 Ca++ Flux Assay (agonist mode, FDSS 7000EX); settings: for M5 FDSS PA / Emax: Percent Activity measured to EC100 of Carbachol; for EC50: agonist mode, geometric mean if tested more than once, read-out: M5 FDSS EC50; for Emax: read-out: M5 FDSS PA
T1 construct: expressed in transfected cells; host or cells: CHO (M5_CHO)
T1 sequence (P08912 1-532): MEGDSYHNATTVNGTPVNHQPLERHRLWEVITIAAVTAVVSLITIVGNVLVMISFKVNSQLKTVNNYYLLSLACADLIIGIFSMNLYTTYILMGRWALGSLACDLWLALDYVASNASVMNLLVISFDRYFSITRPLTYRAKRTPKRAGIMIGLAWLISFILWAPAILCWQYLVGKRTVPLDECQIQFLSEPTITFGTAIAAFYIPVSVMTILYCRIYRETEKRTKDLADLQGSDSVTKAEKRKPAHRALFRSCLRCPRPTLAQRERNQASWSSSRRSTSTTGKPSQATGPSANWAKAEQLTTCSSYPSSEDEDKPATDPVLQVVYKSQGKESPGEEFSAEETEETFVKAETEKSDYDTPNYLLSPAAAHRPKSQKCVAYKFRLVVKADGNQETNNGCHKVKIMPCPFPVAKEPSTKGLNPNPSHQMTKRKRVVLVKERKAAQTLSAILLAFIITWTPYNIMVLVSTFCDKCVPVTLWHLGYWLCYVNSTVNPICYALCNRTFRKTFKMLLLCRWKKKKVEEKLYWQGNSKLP
In short: (§1)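 Agonist responses are measured as calcium mobilization in CHO-K1 cells expressing human M3 or M5, tested over an 11-point dose range in triplicate. Percent activity is normalised to carbachol at EC100.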

[2] = target: T2, Cloned human M1 receptor (CHRM1) stably expressed in HEK293 cells (Homo sapiens, UniProt P11229); experiment: CHRM1 Ca++ Flux Assay (agonist mode, FDSS 7000EX); settings: for M1 FDSS PA: Percent Activity; for EC50: geometric mean if tested more than once; for Emax: HEK293, Percent Activity, read-out: M1 FDSS PA
T2 construct: expressed in transfected cells; host or cells: HEK293
T2 sequence (P11229 1-460): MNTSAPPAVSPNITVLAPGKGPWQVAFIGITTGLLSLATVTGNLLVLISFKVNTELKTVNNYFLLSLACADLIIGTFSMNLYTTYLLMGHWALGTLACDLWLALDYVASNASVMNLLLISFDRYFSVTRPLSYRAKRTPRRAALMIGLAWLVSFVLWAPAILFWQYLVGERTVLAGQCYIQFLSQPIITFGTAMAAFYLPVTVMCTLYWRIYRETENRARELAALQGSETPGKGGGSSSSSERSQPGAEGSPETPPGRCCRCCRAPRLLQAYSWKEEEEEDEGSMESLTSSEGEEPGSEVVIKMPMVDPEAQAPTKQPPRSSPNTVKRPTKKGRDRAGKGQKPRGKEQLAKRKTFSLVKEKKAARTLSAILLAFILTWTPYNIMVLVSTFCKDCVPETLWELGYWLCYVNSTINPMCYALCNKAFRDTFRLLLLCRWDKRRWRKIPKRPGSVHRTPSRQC
In short: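 Compounds tested as agonists at 11 concentrations in triplicate, with calcium traces captured over 3 minutes. Cells were HEK293 with stable human CHRM1 expression, plated overnight at 25K/well and loaded with calcium dye. Responses normalized to carbachol EC100 and fitted by four-parameter nonlinear regression.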

[3] = target: T3, human cloned CHRM3 receptor (M3_CHO cells) (Homo sapiens, UniProt P20309); experiment: CHRM3 Ca++ Flux Assay (agonist mode, FDSS 7000EX); settings: for M3 FDSS PA / Emax: Percent Activity measured to EC100 of Carbachol; for EC50: agonist mode, geometric mean if tested more than once, read-out: M3 FDSS EC50; for Emax: read-out: M3 FDSS PA
T3 construct: expressed in transfected cells; host or cells: CHO-K1
T3 sequence (P20309 whole entry): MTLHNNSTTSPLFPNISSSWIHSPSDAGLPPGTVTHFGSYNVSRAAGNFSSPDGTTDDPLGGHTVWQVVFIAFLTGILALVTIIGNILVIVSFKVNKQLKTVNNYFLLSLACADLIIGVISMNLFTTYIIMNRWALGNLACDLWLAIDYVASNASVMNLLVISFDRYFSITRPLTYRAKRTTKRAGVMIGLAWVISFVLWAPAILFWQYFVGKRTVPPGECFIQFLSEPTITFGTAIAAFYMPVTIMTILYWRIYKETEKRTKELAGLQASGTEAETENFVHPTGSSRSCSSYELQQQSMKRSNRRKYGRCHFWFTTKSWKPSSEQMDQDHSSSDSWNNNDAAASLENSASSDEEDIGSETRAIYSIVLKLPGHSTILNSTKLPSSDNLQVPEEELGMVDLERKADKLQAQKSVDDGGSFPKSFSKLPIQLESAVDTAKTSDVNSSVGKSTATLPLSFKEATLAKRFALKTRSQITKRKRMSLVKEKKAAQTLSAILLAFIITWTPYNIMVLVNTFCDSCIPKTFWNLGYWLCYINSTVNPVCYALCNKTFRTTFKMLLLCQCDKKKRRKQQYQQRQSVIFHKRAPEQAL
In short: as §1

Structure (SMILES)	M5 FDSS PA [1] [%]	EC50 [1] [µM]	M1 FDSS PA [2] [%]	EC50 [2] [µM]	M3 FDSS PA [3] [%]	EC50 [3] [µM]	Emax [1] [%]	Emax [2] [%]	Emax [3] [%]
CC(C)(O)CCOc1ccccc1C1CCN([C@@H]2CCC3(C2)CN(C(=O)C2(F)CC2)C3)CC1 (single isomer, unassigned) [Example 7BB, (R)-(1-fluorocyclopropyl)(6-(4-(2-(3-hydroxy-3-methylbutoxy)phenyl)piperidin-1-yl)-2-azaspiro[3.4]octan-2-yl)methanone or (S)-(1-fluorocyclopropyl)(6-(4-(2-(3-hydroxy-3-methylbutoxy)phenyl)piperidin-1-yl)-2-azaspiro[3.4]octan-2-yl)methanone]	0	> 25	55	0.013	0	> 25			
COc1ccccc1C1CCN([C@@H]2CCC3(C2)CN(c2cnc(C)nc2)C3)CC1 [Example 5E, (R)-6-(4-(2-methoxyphenyl)piperidin-1-yl)-2-(2-methylpyrimidin-5-yl)-2-azaspiro[3.4]octane]		> 25		> 25		> 25	0	0	0
Cc1coc(N2CC3(CC[C@@H](N4CCC(c5ccccc5OCC(C)(C)O)CC4)C3)C2)n1 [Example 3O, (R)-2-methyl-1-(2-(1-(2-(4-methyloxazol-2-yl)-2-azaspiro[3.4]octan-6-yl)piperidin-4-yl)phenoxy)propan-2-ol]		> 25		> 25		> 25	0	0	0
Cc1ncncc1N1CC2(CC[C@@H](N3CCC(c4ccccc4OCC(C)(C)O)CC3)C2)C1 [Example 5C, (R)-2-methyl-1-(2-(1-(2-(4-methylpyrimidin-5-yl)-2-azaspiro[3.4]octan-6-yl)piperidin-4-yl)phenoxy)propan-2-ol]		> 25		0.42		> 25	0	69	0
COc1ccccc1C1CCN([C@@H]2CCC3(C2)CN(c2cncnc2)C3)CC1 [Example 5A, (R)-6-(4-(2-methoxyphenyl)piperidin-1-yl)-2-(pyrimidin-5-yl)-2-azaspiro[3.4]octane]		> 25		0.105		> 25	0	64	0
COC(C)(C)CCOc1ccccc1C1CCN([C@@H]2CCC3(C2)CN(C(=O)C2(F)CC2)C3)CC1 (single isomer, unassigned) [Example 7FF, (R)-(1-fluorocyclopropyl)(6-(4-(2-(3-methoxy-3-methylbutoxy)phenyl)piperidin-1-yl)-2-azaspiro[3.4]octan-2-yl)methanone or (S)-(1-fluorocyclopropyl)(6-(4-(2-(3-methoxy-3-methylbutoxy)phenyl)piperidin-1-yl)-2-azaspiro[3.4]octan-2-yl)methanone]	0	> 25	7	0.182	0	> 25			

Now from value to compound:

M5 FDSS PA [1] [%]	EC50 [1] [µM]	M1 FDSS PA [2] [%]	EC50 [2] [µM]	M3 FDSS PA [3] [%]	EC50 [3] [µM]	Emax [1] [%]	Emax [2] [%]	Emax [3] [%]	Structure (SMILES)
0	> 25	1	> 25	−1	> 25				O=C(N1CC2(CC[C@@H](N3CCC(c4ccccc4OC4CC5(COC5)C4)CC3)C2)C1)C1(F)CC1 (single isomer, unassigned) [Example 11C, (R)-(6-(4-(2-((2-oxaspiro[3.3]heptan-6-yl)oxy)phenyl)piperidin-1-yl)-2-azaspiro[3.4]octan-2-yl)(1-fluorocyclopropyl)methanone or (S)-(6-(4-(2-((2-oxaspiro[3.3]heptan-6-yl)oxy)phenyl)piperidin-1-yl)-2-azaspiro[3.4]octan-2-yl)(1-fluorocyclopropyl)methanone]
0	> 25	16	0.438	0	> 25				COc1ccc(Cl)cc1C1CCN([C@H]2CCC3(C2)CN(C(=O)C2(F)CC2)C3)CC1 (single isomer, unassigned) [Example 8A, (S)-(6-(4-(5-chloro-2-methoxyphenyl)piperidin-1-yl)-2-azaspiro[3.4]octan-2-yl)(1-fluorocyclopropyl)methanone or (R)-(6-(4-(5-chloro-2-methoxyphenyl)piperidin-1-yl)-2-azaspiro[3.4]octan-2-yl)(1-fluorocyclopropyl)methanone]
	14.3		3.76		> 25	17	7	0	COc1ccccc1C1CCN([C@@H]2CCC3(C2)CN(c2cncc(F)c2)C3)CC1 [Example 5F, (R)-2-(5-fluoropyridin-3-yl)-6-(4-(2-methoxyphenyl)piperidin-1-yl)-2-azaspiro[3.4]octane]
0	> 25	36	1.39	0	> 25				Fc1ccc(OC2CCOCC2)c(C2CCN([C@@H]3CCC4(C3)CN(c3cncnc3)C4)CC2)c1 (single isomer, unassigned) [Example 10H, (R)-6-(4-(5-fluoro-2-((tetrahydro-2H-pyran-4-yl)oxy)phenyl)piperidin-1-yl)-2-(pyrimidin-5-yl)-2-azaspiro[3.4]octane or (S)-6-(4-(5-fluoro-2-((tetrahydro-2H-pyran-4-yl)oxy)phenyl)piperidin-1-yl)-2-(pyrimidin-5-yl)-2-azaspiro[3.4]octane]
0	> 25		> 25	0	> 25				Fc1cncc(N2CC3(CC[C@@H](N4CCC(c5cc(F)ccc5OC5CCOCC5)CC4)C3)C2)c1 (single isomer, unassigned) [Example 10B, (R)-6-(4-(5-fluoro-2-((tetrahydro-2H-pyran-4-yl)oxy)phenyl)piperidin-1-yl)-2-(5-fluoropyridin-3-yl)-2-azaspiro[3.4]octane or (S)-6-(4-(5-fluoro-2-((tetrahydro-2H-pyran-4-yl)oxy)phenyl)piperidin-1-yl)-2-(5-fluoropyridin-3-yl)-2-azaspiro[3.4]octane]
0	> 25	9	> 25	0	> 25				O=C(N1CC2(CC[C@@H](N3CCC(c4cc(F)ccc4OC4CC5(COC5)C4)CC3)C2)C1)C1(F)CC1 (single isomer, unassigned) [Example 11A, (R)-(6-(4-(2-((2-oxaspiro[3.3]heptan-6-yl)oxy)-5-fluorophenyl)piperidin-1-yl)-2-azaspiro[3.4]octan-2-yl)(1-fluorocyclopropyl)methanone or (S)-(6-(4-(2-((2-oxaspiro[3.3]heptan-6-yl)oxy)-5-fluorophenyl)piperidin-1-yl)-2-azaspiro[3.4]octan-2-yl)(1-fluorocyclopropyl)methanone]
0	> 25	37	0.135	0	> 25				O=C(N1CC2(CC[C@@H](N3CCC(c4ccccc4OCC4CCOCC4)CC3)C2)C1)C1(F)CC1 (single isomer, unassigned) [Example 7Q, (R)-(1-fluorocyclopropyl)(6-(4-(2-((tetrahydro-2H-pyran-4-yl)methoxy)phenyl)piperidin-1-yl)-2-azaspiro[3.4]octan-2-yl)methanone or (S)-(1-fluorocyclopropyl)(6-(4-(2-((tetrahydro-2H-pyran-4-yl)methoxy)phenyl)piperidin-1-yl)-2-azaspiro[3.4]octan-2-yl)methanone]
